From ChEMBL document CHEMBL1151638, “Hippamine, a Minor Alkaloid From Sternbergia lutea” (1984) come the findings set out here.

For this assay, the system named is Solanum tuberosum. The assay is described as follows: Inhibition of ascorbic acid biosynthesis in potato tuber at 20 uM. Type of assay: functional.

Molecules are shown by their SMILES.

`CO[C@H]1C=C2CCN3Cc4cc5c(cc4[C@H]([C@@H]1O)[C@@H]23)OCO5` [HIPPPAMINE] showed an inhibition at 20 µM of 58%. As for `O[C@H]1[C@H]2c3cc4c(cc3CN3CCC(=C[C@@H]1O)[C@H]23)OCO4` [LYCORINE], 20 µM produced 80% inhibition.

The inhibition is the relative decrease from the control value, in per cent.
